Assay results taken from PMC7036132, “Effects of the Salt-Processing Method on the Pharmacokinetics and Tissue Distribution of Orally Administered Morinda officinalis How. Extract” (Journal of Analytical Methods in Chemistry, 2020).

Assays:
[1] = Stability of the three components in rat plasma and tissues (QC samples); details: n = 5
Protocol: The preparation of calibration standards was done as follows: The appropriate working solution was spiked into blank plasma or tissues to obtain concentrations of 75∼0.047 μg/mL for monotropein, 396∼1.54 μg/mL for rubiadin, and 596∼1.16 μg/mL for rubiadin 1-methyl ether. The QC concentrations for monotropein were 0.14 μg/mL, 2 μg/mL, and 28.1 μg/mL; for rubiadin, they were 1.6 μg/mL, 50.6 μg/mL, and 712.5 μg/mL; and for rubiadin 1-methyl ether, they were 3.9 μg/mL, 54.6 μg/mL, and 765 μg/mL. The QC samples used for the recovery, matrix effect, intra- and interday accuracy, precision, and stability studies were prepared in the same way as that of the calibration standards. The solutions were stored for one week at −20°C.
The QC samples used for the recovery QC samples were used to judge the stability, and the storage conditions were as follows: (1) freeze-thaw stability, (2) at room temperature for 4 h, and (3) put into the autosampler for 8 h, and (4) at −20°C for 30 days. The permitted range was within 15%.

[2] = Pharmacokinetics in rat plasma after oral administration of MO and SMO extract (UPLC-MS/MS); type: in vivo, Sprague-Dawley (SD) rats; details: for Cmax: male, Sprague-Dawley, rat, plasma, po, 40 g/kg; for Cmax / AUC (0-t) / AUC (0-∞) / CL/F / MRT (0-t) / T max / V/F / t1/2z: n = 6
Protocol: For LC-MS/MS analysis, data acquisition and instrument control were performed using MassLynx 4.1 software (Waters Corp., Milford, MA, USA). The analysis column was an Acquity UPLC HSS T3 column (100 mm × 2.1 mm, 1.8 μm, Waters) with a temperature of 40°C. The mobile phase was acetonitrile containing 0.1% formic acid (A) and 0.1% formic acid aqueous solution (B). The elution gradient was 0.00–0.50 min with 2% B; 0.51–5.00 min with 2%–30% B; and 5.01–7.00 min with 40% B. The flow rate was 0.2 mL/min.
The Waters triple quadruple mass spectrometer (Xevo TQD, Waters Corp., Milford, MA, USA) equipped with an electrospray ionization source (ESI) was used in negative ion mode. The desolvation gas was nitrogen with a flow rate of 500 L/h at a temperature of 250°C. All detected compounds were measured in multiple reaction monitoring (MRM) mode.
10 μL of IS working solution and 400 μL of methanol were added to 100 μL plasma. The solution was vortexed for 10 min and then centrifuged at 12,000 rpm for 5 min. The supernatant was shifted to another centrifugation tube and dried with nitrogen at 37°C. The residue was redissolved in 100 μL acetonitrile and centrifuged for 5 min at 12,000 rpm. Five microliters of supernatant was drawn and analyzed by UPLC-MS/MS.
The SD rats (6, male) were housed at 22 ± 2°C and fasted for 12 h with drinking water available ad libitum. MO and SMO ethanol extract were orally administered at a dose of 40 g/kg (equivalent to 6.44 and 3.95 mg/kg of monotropein, 0.088 and 0.091 mg/kg of rubiadin, and 0.174 and 0.178 mg/kg of rubiadin 1-methyl ether). Blood samples (0.5 mL) were collected from the venous plexus of the eye socket at 0.083, 0.25, 0.5, 1.0, 1.5, 2.0, 2.5, 4.0, 6.0, 12.0, and 24 h under anesthesia. Then, the blood samples were centrifuged at 4500 rpm for 10 min, and then the plasma was immediately transferred to new tubes and stored at −80°C until analysis. The pharmacokinetic parameters were calculated using DAS software (3.0 version, China Food and Drug Administration) based on noncompartmental method. All data were recorded as mean ± SD.

[3] = rat kidney, high Conc (rubiadin 4.63, rubiadin 1-methyl ether 3.49, monotropein 28.13 μg/mL)
[4] = rat kidney, low Conc (rubiadin 0.21, rubiadin 1-methyl ether 0.15, monotropein 1.41 μg/mL)
[5] = rat kidney, middle Conc (rubiadin 0.98, rubiadin 1-methyl ether 0.72, monotropein 6.2 μg/mL)
[6] = rat liver, high Conc (rubiadin 4.63, rubiadin 1-methyl ether 3.49, monotropein 28.13 μg/mL)
[7] = rat liver, low Conc (rubiadin 0.21, rubiadin 1-methyl ether 0.15, monotropein 1.41 μg/mL)
[8] = rat liver, middle Conc (rubiadin 0.98, rubiadin 1-methyl ether 0.72, monotropein 6.2 μg/mL)
[9] = rat lung, high Conc (rubiadin 4.63, rubiadin 1-methyl ether 3.49 μg/mL)
[10] = rat lung, low Conc (rubiadin 0.21, rubiadin 1-methyl ether 0.15 μg/mL)
[11] = rat lung, middle Conc (rubiadin 0.98, rubiadin 1-methyl ether 0.72 μg/mL)
[12] = rat plasma, high Conc (rubiadin 712.5, rubiadin 1-methyl ether 765, monotropein 28.1 μg/mL)
[13] = rat plasma, low Conc (rubiadin 3.6, rubiadin 1-methyl ether 3.9, monotropein 0.14 μg/mL)
[14] = rat plasma, middle Conc (rubiadin 50.6, rubiadin 1-methyl ether 54.6, monotropein 2 μg/mL)
[15] = rat small intestine, high Conc (rubiadin 4.63, rubiadin 1-methyl ether 3.49, monotropein 28.13 μg/mL)
[16] = rat small intestine, low Conc (rubiadin 0.21, rubiadin 1-methyl ether 0.15, monotropein 1.41 μg/mL)
[17] = rat small intestine, middle Conc (rubiadin 0.98, rubiadin 1-methyl ether 0.72, monotropein 6.2 μg/mL)

COc1c(C)c(O)cc2c1C(=O)c1ccccc1C2=O [Rubiadin 1-methyl ether, rubiadin 1-methyl ether]
Stability RE%, At 25°C for 12 h [1, 3]: −3.58%
Stability RE%, Autosampler at 4°C for 24 h [1, 3]: −0.36%
Stability RE%, Freeze–thaw cycles [1, 3]: −1.57%
Stability RE%, −20°C for 30 days [1, 3]: 0.54%
Stability RE%, At 25°C for 12 h [1, 4]: 0.35%
Stability RE%, Autosampler at 4°C for 24 h [1, 4]: −0.36%
Stability RE%, Freeze–thaw cycles [1, 4]: 0.15%
Stability RE%, −20°C for 30 days [1, 4]: −5.1%
Stability RE%, At 25°C for 12 h [1, 5]: 0.24%
Stability RE%, Autosampler at 4°C for 24 h [1, 5]: −0.68%
Stability RE%, Freeze–thaw cycles [1, 5]: −0.54%
Stability RE%, −20°C for 30 days [1, 5]: −2.49%
Stability RE%, At 25°C for 12 h [1, 6]: 0.42%
Stability RE%, Autosampler at 4°C for 24 h [1, 6]: −0.66%
Stability RE%, Freeze–thaw cycles [1, 6]: −0.68%
Stability RE%, −20°C for 30 days [1, 6]: −2.58%
Stability RE%, At 25°C for 12 h [1, 7]: −2.1%
Stability RE%, Autosampler at 4°C for 24 h [1, 7]: 0.54%
Stability RE%, Freeze–thaw cycles [1, 7]: −1.52%
Stability RE%, −20°C for 30 days [1, 7]: −0.58%
Stability RE%, At 25°C for 12 h [1, 8]: −3.42%
Stability RE%, Autosampler at 4°C for 24 h [1, 8]: −3.81%
Stability RE%, Freeze–thaw cycles [1, 8]: −5.42%
Stability RE%, −20°C for 30 days [1, 8]: −0.45%
Stability RE%, At 25°C for 12 h [1, 9]: −0.06%
Stability RE%, Autosampler at 4°C for 24 h [1, 9]: −2.42%
Stability RE%, Freeze–thaw cycles [1, 9]: −0.53%
Stability RE%, −20°C for 30 days [1, 9]: 0.05%
Stability RE%, At 25°C for 12 h [1, 10]: −0.57%
Stability RE%, Autosampler at 4°C for 24 h [1, 10]: −8.51%
Stability RE%, Freeze–thaw cycles [1, 10]: −2.57%
Stability RE%, −20°C for 30 days [1, 10]: −1.54%
Stability RE%, At 25°C for 12 h [1, 11]: −5.71%
Stability RE%, Autosampler at 4°C for 24 h [1, 11]: −0.65%
Stability RE%, Freeze–thaw cycles [1, 11]: −4.85%
Stability RE%, −20°C for 30 days [1, 11]: −0.55%
Stability RE%, At 25°C for 12 h [1, 12]: −5.1%
Stability RE%, Autosampler at 4°C for 24 h [1, 12]: −3.14%
Stability RE%, Freeze–thaw cycles [1, 12]: −3.71%
Stability RE%, −20°C for 30 days [1, 12]: −0.86%
Stability RE%, At 25°C for 12 h [1, 13]: −1.79%
Stability RE%, Autosampler at 4°C for 24 h [1, 13]: −1.49%
Stability RE%, Freeze–thaw cycles [1, 13]: −0.94%
Stability RE%, −20°C for 30 days [1, 13]: −3.26%
Stability RE%, At 25°C for 12 h [1, 14]: −4.21%
Stability RE%, Autosampler at 4°C for 24 h [1, 14]: −1.65%
Stability RE%, Freeze–thaw cycles [1, 14]: −1.35%
Stability RE%, −20°C for 30 days [1, 14]: −0.23%
Stability RE%, At 25°C for 12 h [1, 15]: 0.25%
Stability RE%, Autosampler at 4°C for 24 h [1, 15]: 0.48%
Stability RE%, Freeze–thaw cycles [1, 15]: −0.74%
Stability RE%, −20°C for 30 days [1, 15]: 1.35%
Stability RE%, At 25°C for 12 h [1, 16]: −0.69%
Stability RE%, Autosampler at 4°C for 24 h [1, 16]: −0.42%
Stability RE%, Freeze–thaw cycles [1, 16]: −6.57%
Stability RE%, −20°C for 30 days [1, 16]: −1.25%
Stability RE%, At 25°C for 12 h [1, 17]: −0.85%
Stability RE%, Autosampler at 4°C for 24 h [1, 17]: −0.62%
Stability RE%, Freeze–thaw cycles [1, 17]: −0.57%
Stability RE%, −20°C for 30 days [1, 17]: −0.25%
Cmax compared among the three components ([2]; especially in the SMO groups): the highest
Cmax ([2]; oral MO extract 40 g/kg): 432 ± 37 ng/mL
Cmax ([2]; oral SMO extract 40 g/kg): 509 ± 35.1 ng/mL
AUC (0-t) ([2]; oral MO extract 40 g/kg): 1059.49 ± 98.081 μg/L ∗ h
AUC (0-∞) ([2]; oral MO extract 40 g/kg): 1074.351 ± 102.019 μg/L ∗ h
CL/F ([2]; oral MO extract 40 g/kg): 0.037 ± 0.372 L/g/h
MRT (0-t) ([2]; oral MO extract 40 g/kg): 2.908 ± 0.151 H
T max ([2]; oral MO extract 40 g/kg): 0.5 ± 0.00 H
V/F ([2]; oral MO extract 40 g/kg): 0.287 ± 0.067 L/g
t1/2z ([2]; oral MO extract 40 g/kg): 5.379 ± 1.514 H
AUC (0-t) ([2]; oral SMO extract 40 g/kg): 1244.329 ± 82.805 μg/L ∗ h
AUC (0-∞) ([2]; oral SMO extract 40 g/kg): 1253.526 ± 84.691 μg/L ∗ h
CL/F ([2]; oral SMO extract 40 g/kg): 0.032 ± 0.210 L/g/h
MRT (0-t) ([2]; oral SMO extract 40 g/kg): 2.855 ± 0.15 H
T max ([2]; oral SMO extract 40 g/kg): 0.5 ± 0.00 H
V/F ([2]; oral SMO extract 40 g/kg): 0.196 ± 0.363 L/g
t1/2z ([2]; oral SMO extract 40 g/kg): 4.27 ± 0.865 H
Cmax and AUC0-t, SMO groups compared with the MO group ([2]; oral extract 40 g/kg): elevated remarkably
